Results as given in patent US20060229433A1, “Modified antiviral peptides with increased activity and cell membrane affinity” (priority 2003, published 2006).
Values joined by “and” are separate entries in the source; they are usually repeats but may differ in a detail not shown here. Identical values can stand only once. Square brackets hold non-standard residues; d marks the D form. Peptide text beside a SMILES is read from it. Ava = NCCCCC(=O)O

Experiments:
Format in all cases: cell-based
HIV-1 NL 4-3 [1] = test: HIV-1 infection of C8166 cells (syncytia formation, p24 ELISA) with HIV-1 NL 4-3; design: key to syncitia formed, Day 4 / syncitia formed, Day 5 / syncitia formed, Day 6 / syncitia formed, Day 7: ++, +, (+), (+)− and − represent decreasing numbers of syncitia formed; ++, +, (+), (+)− and − represent decreasing numbers of syncitia formed; ++, +, (+), (+)− and − represent decreasing numbers of syncitia formed; ++, +, (+), (+)− and − represent decreasing numbers of syncitia formed; ++, +, (+), (+)− and − represent decreasing numbers of syncitia formed
In short: (§1)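 Infection was read out as syncytia and as cell-free p24 in supernatants (ELISA) from C8166 cells that received HIV-1 (1000 TCID50/ml, 1 h, 37 °C) after a 1 h peptide pretreatment. Peptide stayed on before, during and after adsorption. Toxicity was checked by daily trypan-blue counts.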

HIV-1 NDK = test: HIV-1 infection of C8166 cells (syncytia formation, p24 ELISA) with HIV-1 NDK; design: key to syncitia formed, Day 4 / syncitia formed, Day 5 / syncitia formed, Day 6 / syncitia formed, Day 7: ++, +, (+), (+)− and − represent decreasing numbers of syncitia formed; ++, +, (+), (+)− and − represent decreasing numbers of syncitia formed; ++, +, (+), (+)− and − represent decreasing numbers of syncitia formed; ++, +, (+), (+)− and − represent decreasing numbers of syncitia formed; ++, +, (+), (+)− and − represent decreasing numbers of syncitia formed; conditions: for P 24: P 24 after Day 7
Experimental: HIV-1 NL 4-3 isolate (Adachi et al., 1986; Barré-Sinoussi et al., 1983) and highly cytopathic Zairian HIV-1 NDK isolate (Ellrodt et al., 1984) was propagated in permissive CEM cells (Nara et al., 1987). Uninfected CEM and C8166 (Salahuddin et al., 1983) were maintained in RPMI 1640 (R10) with ultraglutamine (cambrex, Vervier, Belgium), penicillin (100 U/ml), streptomycin (100 μg/ml), and 10% heat-inactivated fetal calf serum (Cambrex).
Samples of 3×10^5/100 μL C8166 cells were preincubated in 96-well microtiter plates in culture medium containing various concentrations of peptide. After a 1 h treatment at 37° C., 100 μl of diluted viral solution of HIV-1 was added. The cells were exposed to the virus for 1 h at 37° C. at a multiplicity of infection of 1000 TCID50 per ml. The cells were washed three times and cultured at 3×10^5/ml of R10 with the treatment in 24-well plates incubated at 37° C. C8166 culture medium was replaced at Day-4 post-infection. The treatment was permanent before virus adsorption, during virus adsorption and after infection. Assays on C8166 cells have been performed at least twice and in duplicate. Toxicity was evaluated by daily cell count and trypan-blue exclusion assay. Infection of C8166 T-cells with HIV-1 was assessed by virus-induced cytopathic effects (syncytia formation) and by quantification of cell free p24 viral protein in the culture supernatants. Measurements of HIV-1 p24^gag concentration in the culture supernatants were achieved by ELISA (ALLIANCE® HIV-1 p24 kit, Perkin Elmer, life sciences, USA).

HIV-1 NL 4-3 [2] = test: HIV-1 infection of C8166 cells (syncytia formation, p24 ELISA) with HIV-1 NL 4-3; design: key: ++, +, (+), (+)− and − represent decreasing numbers of syncitia formed; ++, +, (+), (+)− and − represent decreasing numbers of syncitia formed; ++, +, (+), (+)− and − represent decreasing numbers of syncitia formed; ++, +, (+), (+)− and − represent decreasing numbers of syncitia formed; ++, +, (+), (+)− and − represent decreasing numbers of syncitia formed; conditions: Table 6
In short: as §1

N=C(N)NCCC[C@H](NC(=O)CNC(=O)[C@@H]1CCCN1C(=O)CN)C(=O)NCCCCC(=O)O [GPGR valeric acid, GPGR-NHCH2CH2CH2CH2COOH] (H-GPGR[Ava]-OH; N-terminus assumed)
syncitia formed, Day 4 (HIV-1 NL 4-3 [1]; 0.01 μM, C8166 cells): −
syncitia formed, Day 5 (HIV-1 NL 4-3 [1]; 0.01 μM, C8166 cells): +
syncitia formed, Day 6 (HIV-1 NL 4-3 [1]; 0.01 μM, C8166 cells): ++
syncitia formed, Day 7 (HIV-1 NL 4-3 [1]; 0.01 μM, Day 7, C8166 cells): ++/T and ++
syncitia formed, Day 4 (HIV-1 NL 4-3 [1]; 0.05 μM, C8166 cells): −
syncitia formed, Day 5 (HIV-1 NL 4-3 [1]; 0.05 μM, C8166 cells): (+)
syncitia formed, Day 6 (HIV-1 NL 4-3 [1]; 0.05 μM, C8166 cells): +
syncitia formed, Day 7 (HIV-1 NL 4-3 [1]; 0.05 μM, Day 7, C8166 cells): ++
P 24 (HIV-1 NL 4-3 [1]; 0.05 μM, P 24 after Day 7, C8166 cells): 9860 pg/mL and 17800 pg/mL
syncitia formed, Day 4 (HIV-1 NL 4-3 [1]; 0.1 μM, C8166 cells): −
syncitia formed, Day 5 (HIV-1 NL 4-3 [1]; 0.1 μM, C8166 cells): (+)
syncitia formed, Day 6 (HIV-1 NL 4-3 [1]; 0.1 μM, C8166 cells): +
syncitia formed, Day 7 (HIV-1 NL 4-3 [1]; 0.1 μM, Day 7, C8166 cells): +
syncitia formed, Day 4 (HIV-1 NL 4-3 [1]; 0.5 μM, C8166 cells): −
syncitia formed, Day 5 (HIV-1 NL 4-3 [1]; 0.5 μM, C8166 cells): −
syncitia formed, Day 6 (HIV-1 NL 4-3 [1]; 0.5 μM, C8166 cells): −
syncitia formed, Day 7 (HIV-1 NL 4-3 [1]; 0.5 μM, Day 7, C8166 cells): +
P 24 (HIV-1 NL 4-3 [1]; 0.5 μM, P 24 after Day 7, C8166 cells): 2740 pg/mL and 2840 pg/mL
syncitia formed, Day 4 (HIV-1 NL 4-3 [1]; 1 μM, C8166 cells): −
syncitia formed, Day 5 (HIV-1 NL 4-3 [1]; 1 μM, C8166 cells): −
syncitia formed, Day 6 (HIV-1 NL 4-3 [1]; 1 μM, C8166 cells): −
syncitia formed, Day 7 (HIV-1 NL 4-3 [1]; 1 μM, Day 7, C8166 cells): −
P 24 (HIV-1 NL 4-3 [1]; 1 μM, P 24 after Day 7, C8166 cells): 53 pg/mL and 64 pg/mL
syncitia formed, Day 4 (HIV-1 NL 4-3 [1]; 5 μM, C8166 cells): −
syncitia formed, Day 5 (HIV-1 NL 4-3 [1]; 5 μM, C8166 cells): −
syncitia formed, Day 6 (HIV-1 NL 4-3 [1]; 5 μM, C8166 cells): −
syncitia formed, Day 7 (HIV-1 NL 4-3 [1]; 5 μM, Day 7, C8166 cells): −
P 24 (HIV-1 NL 4-3 [1]; 5 μM, P 24 after Day 7, C8166 cells): 2 pg/mL
P 24 (HIV-1 NL 4-3 [1]; Day 7, 0.005 μM, Table 6): 23810 pg/mL
P 24 (HIV-1 NL 4-3 [1]; Day 7, 0.01 μM, Table 6): 21800 pg/mL and 23810 pg/mL
P 24 (HIV-1 NL 4-3 [1]; Day 7, 0.05 μM, Table 6): 9840 pg/mL and 11830 pg/mL
P 24 (HIV-1 NL 4-3 [1]; Day 7, 0.1 μM, Table 6): 433 pg/mL and 507 pg/mL
P 24 (HIV-1 NL 4-3 [1]; Day 7, 1 μM, Table 6): 104 pg/mL and 179 pg/mL
P 24 (HIV-1 NL 4-3 [1]; Day 7, 5 μM, Table 6): 2.36 pg/mL and 2.4 pg/mL
syncitia formed, Day 4 (HIV-1 NDK; 0.005 μM): (+)
syncitia formed, Day 5 (HIV-1 NDK; 0.005 μM): +
syncitia formed, Day 6 (HIV-1 NDK; 0.005 μM): ++
syncitia formed, Day 7 (HIV-1 NDK; 0.005 μM): ++
P 24 (HIV-1 NDK; 0.005 μM): 23810 pg/mL
syncitia formed, Day 4 (HIV-1 NDK; 0.01 μM): (+)
syncitia formed, Day 5 (HIV-1 NDK; 0.01 μM): +
syncitia formed, Day 6 (HIV-1 NDK; 0.01 μM): ++
syncitia formed, Day 7 (HIV-1 NDK; 0.01 μM): ++
P 24 (HIV-1 NDK; 0.01 μM): 23810 pg/mL
syncitia formed, Day 4 (HIV-1 NDK; 0.05 μM): −
syncitia formed, Day 5 (HIV-1 NDK; 0.05 μM): (+)
syncitia formed, Day 6 (HIV-1 NDK; 0.05 μM): ++
syncitia formed, Day 7 (HIV-1 NDK; 0.05 μM): ++
P 24 (HIV-1 NDK; 0.05 μM): 23810 pg/mL
syncitia formed, Day 4 (HIV-1 NDK; 0.1 μM): −
syncitia formed, Day 5 (HIV-1 NDK; 0.1 μM): (+)
syncitia formed, Day 6 (HIV-1 NDK; 0.1 μM): ++
syncitia formed, Day 7 (HIV-1 NDK; 0.1 μM): ++
P 24 (HIV-1 NDK; 0.1 μM): 17890 pg/mL and 23810 pg/mL
syncitia formed, Day 4 (HIV-1 NDK; 0.5 μM): −
syncitia formed, Day 5 (HIV-1 NDK; 0.5 μM): −
syncitia formed, Day 6 (HIV-1 NDK; 0.5 μM): +
syncitia formed, Day 7 (HIV-1 NDK; 0.5 μM): ++
syncitia formed, Day 4 (HIV-1 NDK; 1 μM): −
syncitia formed, Day 5 (HIV-1 NDK; 1 μM): −
syncitia formed, Day 6 (HIV-1 NDK; 1 μM): +
syncitia formed, Day 7 (HIV-1 NDK; 1 μM): ++
P 24 (HIV-1 NDK; 1 μM): 2840 pg/mL and 3810 pg/mL
syncitia formed, Day 4 (HIV-1 NDK; 5 μM): −
syncitia formed, Day 5 (HIV-1 NDK; 5 μM): −
syncitia formed, Day 6 (HIV-1 NDK; 5 μM): (+)
syncitia formed, Day 7 (HIV-1 NDK; 5 μM): +
P 24 (HIV-1 NDK; 5 μM): 3810 pg/mL
IC50 (HIV-1 NDK; HIV 1 NDK, Table 10): 300 nM
IC100 (HIV-1 NDK; HIV 1 NDK, Table 10): >5 µM
Day 4 syncitia formed (HIV-1 NL 4-3 [2]; 0.005 μM): −
Day 5 syncitia formed (HIV-1 NL 4-3 [2]; 0.005 μM): +
Day 6 syncitia formed (HIV-1 NL 4-3 [2]; 0.005 μM): ++
Day 7 syncitia formed (HIV-1 NL 4-3 [2]; 0.005 μM): ++
Day 4 syncitia formed (HIV-1 NL 4-3 [2]; 0.01 μM): −
Day 5 syncitia formed (HIV-1 NL 4-3 [2]; 0.01 μM): +
Day 6 syncitia formed (HIV-1 NL 4-3 [2]; 0.01 μM): ++
Day 7 syncitia formed (HIV-1 NL 4-3 [2]; 0.01 μM): ++
Day 4 syncitia formed (HIV-1 NL 4-3 [2]; 0.05 μM): −
Day 5 syncitia formed (HIV-1 NL 4-3 [2]; 0.05 μM): (+)
Day 6 syncitia formed (HIV-1 NL 4-3 [2]; 0.05 μM): +
Day 7 syncitia formed (HIV-1 NL 4-3 [2]; 0.05 μM): ++
Day 4 syncitia formed (HIV-1 NL 4-3 [2]; 0.1 μM): −
Day 5 syncitia formed (HIV-1 NL 4-3 [2]; 0.1 μM): (+)
Day 6 syncitia formed (HIV-1 NL 4-3 [2]; 0.1 μM): +
Day 7 syncitia formed (HIV-1 NL 4-3 [2]; 0.1 μM): +
Day 4 syncitia formed (HIV-1 NL 4-3 [2]; 0.5 μM): −
Day 5 syncitia formed (HIV-1 NL 4-3 [2]; 0.5 μM): −
Day 6 syncitia formed (HIV-1 NL 4-3 [2]; 0.5 μM): −
Day 7 syncitia formed (HIV-1 NL 4-3 [2]; 0.5 μM): +
Day 4 syncitia formed (HIV-1 NL 4-3 [2]; 1 μM): −
Day 5 syncitia formed (HIV-1 NL 4-3 [2]; 1 μM): −
Day 6 syncitia formed (HIV-1 NL 4-3 [2]; 1 μM): −
Day 7 syncitia formed (HIV-1 NL 4-3 [2]; 1 μM): +
Day 4 syncitia formed (HIV-1 NL 4-3 [2]; 5 μM): −
Day 5 syncitia formed (HIV-1 NL 4-3 [2]; 5 μM): −
Day 6 syncitia formed (HIV-1 NL 4-3 [2]; 5 μM): −
Day 7 syncitia formed (HIV-1 NL 4-3 [2]; 5 μM): −
